In US6680178B2, “Profiling of protease specificity using combinatorial fluorogenic substrate libraries” (The Regents of the University of California, priority 2000, dated 2004):
One block for each compound: values may come before it. Non-standard residues stand in square brackets, D forms with d. Residues, ends and D or L forms follow the SMILES beside them. *: point of attachment. ACC = NC(=O)Cc1cc(=O)oc2cc(N*)ccc12; AMC = Cc1cc(=O)oc2cc(N*)ccc12; Nle = CCCC[C@H](N)C(=O)O; CH2Cl = ClC*

Legend:
[1] = Fluorescence properties of free and peptidyl-derivatized ACC and AMC; format: physicochemical; details: for λmax, em / λmax, ex: 25° C.; for RFU/nM1 / RFU/nM2: λex = 380 nm; for RFU/nM1: λem = 450 nm; for RFU/nM2: λem = 460 nm
Experimental: The fluorescence of free ACC and peptidyl-derivatized ACC was detected on a Spex fluorometer thermostated to 25° C. Excitation wavelengths of 300-410 nm, 5 nm intervals, were used with emission wavelengths of 410-500 nm, 5 nm intervals, to determine optimal excitation and emission parameters.

thrombin [2] = target: T1, thrombin (Homo sapiens, UniProt P00734); experiment: Single substrate kinetic assay with thrombin (ACC vs AMC leaving group); format: biochemical; details: thrombin 5-20 nM
T1 construct: Human thrombin, plasmin, and factor Xa were used as received; purchased Haematologic Technologies Inc. (Essex Jct., Vt.)
Experimental: (§1) Thrombin concentration ranged from 5-20 nM. The final concentration of substrate ranged from 0.005-2 mM, the concentration of DMSO in the assay was less than 5%. Hydrolysis of AMC and ACC substrates was monitored fluorometrically with an excitation wavelength of 380 nm and emission wavelength of 460 nm on a Fluoromax-2 spectrofluorometer. Cruzain (10 nM) was incubated with 600 μM of the Ac-Leu-Thr-Phe-Lys-ACC substrate. Aliquots were removed at various time points and applied to a C-18 reverse-phase HPLC column with a 10-40% gradient of 95:4.9:0.1 Acetonitrile:H2O:TFA. MALDI (PE Biosystems Voyager) mass spectrometry data was collected on the HPLC fractions.

βII Tryptase [3] = target: T2, βII Tryptase (Homo sapiens, UniProt Q15661, N132K); experiment: Single substrate kinetic analysis, βII tryptase; format: biochemical; details: for Km: βII Tryptase, 30° C., pH 7.5
T2 construct: Secreted mature βI and βII tryptases were purified to homogeneity; made in house; host or cells: Pichia pastoris GS115
T2 sequence (Q15661 31-275 N132K): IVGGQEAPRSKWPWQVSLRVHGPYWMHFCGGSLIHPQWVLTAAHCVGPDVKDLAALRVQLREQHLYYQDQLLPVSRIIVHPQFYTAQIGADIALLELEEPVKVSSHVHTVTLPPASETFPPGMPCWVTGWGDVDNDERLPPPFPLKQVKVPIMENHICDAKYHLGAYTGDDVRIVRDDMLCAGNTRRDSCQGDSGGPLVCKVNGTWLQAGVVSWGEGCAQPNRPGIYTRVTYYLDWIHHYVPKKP
Experimental: (§2) Tryptase activity was monitored at 30° C. in assay buffer containing 100 mM HEPES pH 7.5 and 10% glycerol. Substrate stock solutions were prepared in DMSO. The final concentration of substrate ranged from 0.005-2 mM. The concentration of DMSO in the assay was less than 5%. The tryptase concentration was 5 nM. Hydrolysis of ACC substrates was monitored fluorometrically with an excitation wavelength of 380 nm and emission wavelength of 450 nm on a Fluoromax-2 spectrofluorimeter (JY Horiba).

βI Tryptase [4] = target: T3, βI Tryptase (Homo sapiens, UniProt Q15661); experiment: Single substrate kinetic analysis, βI tryptase; format: biochemical; details: for Km: βI Tryptase, 30° C., pH 7.5
T3 construct: Secreted mature βI and βII tryptases were purified to homogeneity; made in house; host or cells: Pichia pastoris GS115
T3 sequence (Q15661 31-275): as the sequence (Q15661 31-275 N132K) above, with K102N counted along it
Experimental: as §2

cruzain = target: T4, cruzain (Trypanosoma cruzi, UniProt P25779); experiment: Incubation of single substrate with cruzain and analysis of cleavage products (HPLC, MALDI); format: biochemical; details: cruzain 10 nM, 600 μM substrate; data not shown
T4 construct: made in house
T4 sequence (P25779 123-337): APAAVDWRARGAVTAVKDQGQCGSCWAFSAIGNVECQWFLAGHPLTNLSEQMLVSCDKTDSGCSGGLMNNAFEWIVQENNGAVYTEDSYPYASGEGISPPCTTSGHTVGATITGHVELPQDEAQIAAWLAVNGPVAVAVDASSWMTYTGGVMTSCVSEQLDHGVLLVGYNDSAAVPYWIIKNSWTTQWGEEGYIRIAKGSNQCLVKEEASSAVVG
Experimental: as §1

Factor Xa = experiment: Protease inhibition by Ac-PRNK-cmk, residual activity; format: biochemical, human; details: 100 μM Ac-PRNK-cmk, 5 minutes incubation, enzyme 50 nM
Experimental: (§3) Progress curves were obtained for tryptase (1 nM) inactivation by multiple concentrations of Ac-PRNK-cmk (50 nM to 10 μM). Activity was monitored at 30° C. in activity buffer with 100 μM Ac-PRNK-ACC substrate. The rate constant for loss of enzyme activity, kobs, was determined from a non-linear regression of the progress curve data. kobs varied linearly with inhibitor concentration. Therefore, kass, the rate constant for the inactivation of enzyme with inhibitor, was determined by linear regression analysis (Bieth, J. G. Methods in Enzymology 248: 59-84 (1995)). Several P1-basic-preferring proteases were monitored for inhibition by Ac-PRNK-cmk as follows: tryptase bI (50 nM), tryptase bII (50 nM), factor Xa (50 nM), tPA (50 nM), uPA (50 nM), thrombin (1 nM), and plasmin (5 nM) were incubated for 5 minutes with 0 μM, 10 μM, 100 μM Ac-PRNK-cmk. After incubation, residual activity was monitored as follows: Ac-PRNK-ACC was added to a final concentration of 5 μM to the samples containing tryptase βI and βII; Ac-GTAR-ACC (5 μM) was added to the factor Xa and tPA samples; Ac-QFAR-ACC (5 μM) was added to the uPA samples; Ac-nTPR-ACC (5 μM) was added to the thrombin samples; and Ac-KQWK-ACC (5 μM) was added to plasmin samples.
(§4) Progress curves were obtained for tryptase (1 nM) inactivation by multiple concentrations of Ac-PRNK-cmk (50 nM to 10 μM). […]

βII Tryptase [5] = target: T2, βII Tryptase; experiment: Irreversible inhibitor kinetic analysis (progress curves), βII tryptase; format: biochemical; details: tryptase 1 nM, 30° C., 100 μM Ac-PRNK-ACC substrate
Experimental: as §3, §4

Tryptase βII = target: T5, Tryptase βII (Homo sapiens, UniProt Q15661, N132K); experiment: Protease inhibition by Ac-PRNK-cmk, residual activity; format: biochemical; details: 10 μM Ac-PRNK-cmk, 5 minutes incubation, enzyme 50 nM
T5 construct: Secreted mature βI and βII tryptases were purified to homogeneity; made in house; host or cells: Pichia pastoris GS115
T5 sequence (Q15661 31-275 N132K): as the sequence (Q15661 31-275 N132K) above
Experimental: as §3
as §3, with “(Bieth” for “(Bieth, J. G. Methods in Enzymology 248: 59-84”, “bIl” for “bII”

uPA = target: T6, uPA (Homo sapiens, UniProt P00749); experiment: as above; format: biochemical; details: 100 μM Ac-PRNK-cmk, 5 minutes incubation, enzyme 50 nM
T6 construct: purchased American Diagnostica (Greenwich, Conn.) or Calbiochem (San Diego, Calif.)
Experimental: as §3
as §3, with “(Bieth” for “(Bieth, J. G. Methods in Enzymology 248: 59-84”, “bIl” for “bII”

tPA = target: T7, tPA (Homo sapiens, UniProt P00750); experiment: as above; format: biochemical; details: 100 μM Ac-PRNK-cmk, 5 minutes incubation, enzyme 50 nM
T7 construct: purchased American Diagnostica (Greenwich, Conn.)
T7 sequence (P00750 36-562): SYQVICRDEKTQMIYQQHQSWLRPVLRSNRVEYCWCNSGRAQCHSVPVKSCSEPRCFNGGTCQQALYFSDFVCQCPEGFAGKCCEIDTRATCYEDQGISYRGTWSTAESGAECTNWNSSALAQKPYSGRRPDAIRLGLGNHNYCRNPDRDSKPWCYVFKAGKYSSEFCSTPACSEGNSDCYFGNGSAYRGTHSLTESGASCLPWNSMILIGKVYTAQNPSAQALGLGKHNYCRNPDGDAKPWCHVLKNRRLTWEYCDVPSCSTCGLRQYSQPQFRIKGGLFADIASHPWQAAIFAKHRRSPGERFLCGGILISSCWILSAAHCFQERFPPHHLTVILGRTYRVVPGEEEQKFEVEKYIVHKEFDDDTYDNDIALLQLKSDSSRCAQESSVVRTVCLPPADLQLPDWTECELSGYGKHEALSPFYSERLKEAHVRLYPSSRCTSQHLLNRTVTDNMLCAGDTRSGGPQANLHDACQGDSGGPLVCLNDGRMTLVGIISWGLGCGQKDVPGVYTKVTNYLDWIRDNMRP
Experimental: as §3
as §3, with “(Bieth” for “(Bieth, J. G. Methods in Enzymology 248: 59-84”, “bIl” for “bII”

thrombin [6] = target: T1, thrombin; experiment: as above; format: biochemical; details: 100 μM Ac-PRNK-cmk, 5 minutes incubation, enzyme 1 nM
Experimental: as §3
as §3, with “(Bieth” for “(Bieth, J. G. Methods in Enzymology 248: 59-84”, “bIl” for “bII”

Tryptase βI = target: T8, Tryptase βI (Homo sapiens, UniProt Q15661); experiment: as above; format: biochemical; details: 10 μM Ac-PRNK-cmk, 5 minutes incubation, enzyme 50 nM
T8 construct: Secreted mature βI and βII tryptases were purified to homogeneity; made in house; host or cells: Pichia pastoris GS115
T8 sequence (Q15661 31-275): as the sequence (Q15661 31-275 N132K) above, with K102N counted along it
Experimental: as §3
as §3, with “(Bieth” for “(Bieth, J. G. Methods in Enzymology 248: 59-84”, “bIl” for “bII”

Plasmin = target: T9, Plasmin (Homo sapiens, UniProt P00747); experiment: as above; format: biochemical; details: 100 μM Ac-PRNK-cmk, 5 minutes incubation, enzyme 5 nM
T9 construct: Human thrombin, plasmin, and factor Xa were used as received; purchased Haematologic Technologies Inc. (Essex Jct., Vt.)
T9 sequence (P00747 581-810 limits assumed): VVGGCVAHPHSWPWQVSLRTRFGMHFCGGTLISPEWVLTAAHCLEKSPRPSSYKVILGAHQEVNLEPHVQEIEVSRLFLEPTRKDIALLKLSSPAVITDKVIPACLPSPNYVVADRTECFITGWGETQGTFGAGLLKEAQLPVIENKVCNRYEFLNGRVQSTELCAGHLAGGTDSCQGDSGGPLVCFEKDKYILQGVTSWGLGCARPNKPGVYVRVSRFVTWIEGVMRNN
T9 sequence (P00747 97-580 partner limits assumed): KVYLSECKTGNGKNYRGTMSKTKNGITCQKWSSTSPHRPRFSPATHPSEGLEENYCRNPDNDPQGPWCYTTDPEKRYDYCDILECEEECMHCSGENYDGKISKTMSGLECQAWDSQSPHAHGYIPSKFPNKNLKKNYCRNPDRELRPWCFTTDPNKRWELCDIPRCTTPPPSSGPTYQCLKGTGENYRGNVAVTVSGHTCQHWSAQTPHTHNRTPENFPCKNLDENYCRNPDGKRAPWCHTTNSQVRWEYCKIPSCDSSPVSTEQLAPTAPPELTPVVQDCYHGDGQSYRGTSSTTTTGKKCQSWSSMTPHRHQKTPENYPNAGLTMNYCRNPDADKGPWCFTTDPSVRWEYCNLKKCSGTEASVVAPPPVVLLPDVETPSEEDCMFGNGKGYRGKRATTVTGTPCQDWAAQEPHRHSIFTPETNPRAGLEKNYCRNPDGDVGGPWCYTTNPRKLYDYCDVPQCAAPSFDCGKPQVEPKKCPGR
Experimental: as §3
as §3, with “(Bieth” for “(Bieth, J. G. Methods in Enzymology 248: 59-84”, “bIl” for “bII”

βI Tryptase [7] = target: T3, βI Tryptase; experiment: Irreversible inhibitor kinetic analysis (progress curves), βI tryptase; format: biochemical; details: tryptase 1 nM, 30° C., 100 μM Ac-PRNK-ACC substrate
Experimental: as §3, §4

[8] = range stated over tryptase βI and βII

- λmax, em [1]: 390 nm
- λmax, ex [1]: 330 nm
- RFU/nM1 [1]: 3.3 RFU/nM
- RFU/nM2 [1]: 2.2 RFU/nM
Compound: 7-Nle-Thr-Pro-Lys-AMC [reference compound]

- Km (βII Tryptase [3]): 14.5 ± 1.9 µM
- Km (βI Tryptase [4]): 8.9 ± 0.9 µM
Compound: CC(=O)N1CCC[C@H]1C(=O)N[C@@H](CCCNC(=N)N)C(=O)N[C@@H](CC(N)=O)C(=O)N[C@@H](CCCCN)C(=O)Nc1ccc2c(CC(N)=O)cc(=O)oc2c1 [Ac-PRNK-ACC] (Ac-PRNK-{ACC})

- activity relative to Ac-PRNK-ACC substrate (βII Tryptase [3]; [8]): 70-90%
- Km (βII Tryptase [3]): 18.6 ± 2.6 µM
- activity relative to Ac-PRNK-ACC substrate (βI Tryptase [4]; [8]): 70-90%
- Km (βI Tryptase [4]): 16.5 ± 2.7 µM
Compound: CC(=O)N1CCC[C@H]1C(=O)N[C@@H](CCCNC(=N)N)C(=O)N[C@@H](CC(N)=O)C(=O)N[C@@H](CCCNC(=N)N)C(=O)Nc1ccc2c(CC(N)=O)cc(=O)oc2c1 [Ac-PRNR-ACC] (Ac-PRNR-{ACC})

- Km (βII Tryptase [3]): 23.4 ± 2.3 µM
- Km (βI Tryptase [4]): 14.7 ± 1.4 µM
Compound: CC(=O)N1CCC[C@H]1C(=O)N[C@@H](CCCNC(=N)N)C(=O)N[C@H](C(=O)N[C@@H](CCCCN)C(=O)Nc1ccc2c(CC(N)=O)cc(=O)oc2c1)[C@@H](C)O [Ac-PRTK-ACC] (Ac-PRTK-{ACC})

- association rate constant, kass (βII Tryptase [5]): 5000 ± 200 M⁻¹ s⁻¹
- Percent Inhibition (Tryptase βII): 95
- Percent Inhibition (uPA): 34
- Percent Inhibition (tPA): 0
- Percent Inhibition (thrombin [6]): 0
- Percent Inhibition (Tryptase βI): 95
- Percent Inhibition (Plasmin): 63
- association rate constant, kass (βI Tryptase [7]): 5000 ± 200 M⁻¹ s⁻¹
Compound: Ac-PRNK-CH2Cl
- Percent Inhibition (Factor Xa): 0

The next lines start with the compound.

Compound: 7-Nle-Thr-Pro-Lys-ACC
- λmax, em [1]: 400 nm
- λmax, ex [1]: 325 nm
- RFU/nM1 [1]: 6.4 RFU/nM
- RFU/nM2 [1]: 4.6 RFU/nM

Compound: NC(=O)Cc1cc(=O)oc2cc(N)ccc12 [7-Amino-4-Carbamoylmethyl-coumarin (ACC), 7-amino-4-carbamoylmethyl-coumarin]
- λmax, em [1]: 450 nm
- λmax, ex [1]: 350 nm
- fluorescence yield relative to the AMC coumarin ([1]; excitation 380 nm, emission 460 nm): approximately 2.8 fold
- RFU/nM1 [1]: 5750 RFU/nM
- RFU/nM2 [1]: 4390 RFU/nM

Compound: CC(=O)N[C@@H](CC(C)C)C(=O)NCC(=O)N1CCC[C@H]1C(=O)N[C@@H](CCCCN)C(=O)Nc1ccc2c(CC(N)=O)cc(=O)oc2c1 [Ac-Leu-Gly-Pro-Lys--ACC] (Ac-LGPK-{ACC})
- Km (thrombin [2]): 195 ± 30 µM

Compound: CC(=O)N[C@@H](CC(C)C)C(=O)NCC(=O)N1CCC[C@H]1C(=O)N[C@@H](CCCCN)C(=O)Nc1ccc2c(C)cc(=O)oc2c1 [Ac-Leu-Gly-Pro-Lys-AMC] (Ac-LGPK-{AMC})
- Km (thrombin [2]): 160 ± 25 µM
- kcat (thrombin [2]): 2.3 ± 0.2 s⁻¹

Compound: CCCC[C@H](NC(C)=O)C(=O)N[C@H](C(=O)N1CCC[C@H]1C(=O)N[C@@H](CCCCN)C(=O)Nc1ccc2c(CC(N)=O)cc(=O)oc2c1)[C@@H](C)O [Ac-Nle Thr-Pro-Lys--ACC] (Ac-[Nle]TPK-{ACC})
- Km (thrombin [2]): 125 ± 13 µM

Compound: CCCC[C@H](NC(C)=O)C(=O)N[C@H](C(=O)N1CCC[C@H]1C(=O)N[C@@H](CCCCN)C(=O)Nc1ccc2c(C)cc(=O)oc2c1)[C@@H](C)O [Ac-Nle-Thr-Pro-Lys-AMC] (Ac-[Nle]TPK-{AMC})
- Km (thrombin [2]): 115 ± 10 µM
- kcat (thrombin [2]): 31.0 ± 0.9 s⁻¹

Compound: CC(=O)N1CCC[C@H]1C(=O)N[C@@H](C)C(=O)N[C@@H](CC(N)=O)C(=O)N[C@@H](CCCCN)C(=O)Nc1ccc2c(CC(N)=O)cc(=O)oc2c1 [Ac-PANK-ACC] (Ac-PANK-{ACC})
- Km (βII Tryptase [3]): 133 ± 15.6 µM
- Km (βI Tryptase [4]): 111 ± 9.8 µM

Compound: Ac-Leu-Thr-Phe-Lys-ACC (Ac-LTFK-{ACC}; SMILES CC(=O)N[C@@H](CC(C)C)C(=O)N[C@H](C(=O)N[C@@H](Cc1ccccc1)C(=O)N[C@@H](CCCCN)C(=O)Nc1ccc2c(CC(N)=O)cc(=O)oc2c1)[C@@H](C)O)
- cleavage products observed (cruzain): cleavage between Thr-Phe
